“And” between values parts separate entries of the source, which are not always exact repeats. Equal values may be shown once. Toxic doses and inconclusive results are not listed.
Test system: BDF1 mice, P388 leukemia ip, median survival T/C
Assay: NCI In Vivo Anticancer Drug Screen. Data for tumor model P388 Leukemia (intraperitoneal) in B6D2F1 (BDF1) mice
Details: endpoint: median survival time, higher = longer survival
Procedure, shortened: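 Antitumour effect was judged in vivo: survival in drug-treated mice, normalised to that of vehicle-dosed controls, gives the reported T/C.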

[1] = dose: 100.0 mg/kg/injection, schedule: Q01DX009 (ip), vehicle: saline
[2] = dose: 200.0 mg/kg/injection, schedule: Q01DX009 (ip), vehicle: saline
[3] = dose: 100.0 mg/kg/injection, schedule: Q04DX003 (ip), vehicle: saline with Tween-80
[4] = dose: 200.0 mg/kg/injection, schedule: Q04DX003 (ip), vehicle: saline with Tween-80
[5] = dose: 400.0 mg/kg/injection, schedule: Q04DX003 (ip), vehicle: saline with Tween-80
[6] = dose: 50.0 mg/kg/injection, schedule: Q01DX009 (ip), vehicle: saline with Tween-80
[7] = dose: 200.0 mg/kg/injection, schedule: Q01DX009 (ip), vehicle: saline with Tween-80
[8] = dose: 100.0 mg/kg/injection, schedule: Q01DX009 (ip), vehicle: saline with Tween-80

O=C(O)C(Br)(C(=O)O)c1ccccc1
T/C (dose: 100.0 mg/kg/injection, schedule: Q04DX002 (ip), vehicle: saline with Tween-80): 93 % of control
T/C (dose: 200.0 mg/kg/injection, schedule: Q04DX002 (ip), vehicle: saline with Tween-80): 97 % of control
T/C (dose: 400.0 mg/kg/injection, schedule: Q04DX002 (ip), vehicle: saline with Tween-80): 93 % of control

Oc1cc(O)c(CN(CCCl)CCCl)cc1CN(CCCl)CCCl
T/C (dose: 1.0 mg/kg/injection, schedule: Q01DX009 (ip), vehicle: saline): 118 % of control
T/C (dose: 1.5 mg/kg/injection, schedule: Q01DX009 (ip), vehicle: saline): 118 % of control
T/C (dose: 2.4 mg/kg/injection, schedule: Q01DX009 (ip), vehicle: saline): 157 % of control
T/C (dose: 3.6 mg/kg/injection, schedule: Q01DX009 (ip), vehicle: saline): 182 % of control
T/C (dose: 5.4 mg/kg/injection, schedule: Q01DX009 (ip), vehicle: saline): 166 % of control
T/C (dose: 5.5 mg/kg/injection, schedule: Q01DX009 (ip), vehicle: saline): 168 % of control
T/C (dose: 8.2 mg/kg/injection, schedule: Q01DX009 (ip), vehicle: saline): 176 % of control
T/C (dose: 8.25 mg/kg/injection, schedule: Q01DX009 (ip), vehicle: saline): 165 % of control and 180 % of control
T/C (dose: 9.9 mg/kg/injection, schedule: Q04DX003 (ip), vehicle: saline): 163 % of control
T/C (dose: 15.0 mg/kg/injection, schedule: Q04DX003 (ip), vehicle: saline): 220 % of control
T/C (dose: 16.0 mg/kg/injection, schedule: Q01DX009 (ip), vehicle: saline): 194 % of control
T/C (dose: 18.75 mg/kg/injection, schedule: Q01DX009 (ip), vehicle: saline): 195 % of control and 200 % of control
T/C (dose: 23.0 mg/kg/injection, schedule: Q04DX003 (ip), vehicle: saline): 160 % of control
T/C (dose: 25.0 mg/kg/injection, schedule: Q01DX009 (ip), vehicle: saline): 162 % of control and 202 % of control and 222 % of control
T/C (dose: 35.0 mg/kg/injection, schedule: Q01DX009 (ip), vehicle: saline): 185 % of control
T/C (dose: 35.0 mg/kg/injection, schedule: Q04DX003 (ip), vehicle: saline): 190 % of control and 200 % of control
T/C (dose: 50.0 mg/kg/injection, schedule: Q01DX009 (ip), vehicle: saline): 150 % of control
T/C (dose: 55.0 mg/kg/injection, schedule: Q04DX003 (ip), vehicle: saline): 250 % of control and 212 % of control
T/C (dose: 80.0 mg/kg/injection, schedule: Q04DX003 (ip), vehicle: saline): 250 % of control and 208 % of control
T/C [1]: 86 % of control
T/C [2]: 177 % of control

CC1(C)C(=O)C(C)(C)C1=NO
T/C (dose: 100.0 mg/kg/injection, schedule: Q04DX003 (ip), vehicle: saline): 95 % of control
T/C (dose: 200.0 mg/kg/injection, schedule: Q04DX003 (ip), vehicle: saline): 100 % of control
T/C (dose: 400.0 mg/kg/injection, schedule: Q04DX003 (ip), vehicle: saline): 95 % of control

CCC[CH2][Sn]([CH2]CCC)([CH2]CCC)[S]C(=S)NCCNC(=S)[S][Sn]([CH2]CCC)([CH2]CCC)[CH2]CCC
T/C (dose: 0.78 mg/kg/injection, schedule: Q01DX010 (ip), vehicle: saline): 113 % of control
T/C (dose: 1.56 mg/kg/injection, schedule: Q01DX010 (ip), vehicle: saline): 109 % of control
T/C (dose: 3.13 mg/kg/injection, schedule: Q01DX010 (ip), vehicle: saline): 109 % of control

CC(C)=CCCC(C)=C(C#N)C#N
T/C (dose: 25.0 mg/kg/injection, schedule: Q04DX003 (ip), vehicle: saline with Tween-80): 107 % of control
T/C (dose: 50.0 mg/kg/injection, schedule: Q04DX003 (ip), vehicle: saline with Tween-80): 105 % of control
T/C [3]: 107 % of control

COc1ccc(-c2c(C#N)cnc(C)c2C)c(O)c1OC
T/C (dose: 0.2 mg/kg/injection, schedule: Q01DX009 (ip), vehicle: Klucel (hydroxypropylcellulose) (HPC)): 95 % of control

Cc1ccc(C2NC(=O)c3ccccc3N2)s1 (configuration not stated)
T/C (dose: 50.0 mg/kg/injection, schedule: Q01DX009 (ip), vehicle: Klucel (hydroxypropylcellulose) (HPC)): 107 % of control and 113 % of control

O=C(O)c1ccccc1Oc1ccccc1C(=O)O
T/C [1]: 100 % of control
T/C [2]: 90 % of control
T/C (dose: 400.0 mg/kg/injection, schedule: Q01DX009 (ip), vehicle: saline): 104 % of control

CN1C=NNc2ccc(Cl)cc2C1=O
T/C [3]: 103 % of control
T/C [4]: 114 % of control
T/C [5]: 109 % of control

[O-][n+]1c(/C=C/c2cccc3ccccc23)cccc1/C=C/c1cccc2ccccc12
T/C (dose: 50.0 mg/kg/injection, schedule: Q01DX005 (ip), vehicle: saline + Tween-80 + alcohol): 94 % of control
T/C (dose: 100.0 mg/kg/injection, schedule: Q01DX005 (ip), vehicle: saline + Tween-80 + alcohol): 96 % of control
T/C (dose: 200.0 mg/kg/injection, schedule: Q01DX005 (ip), vehicle: saline + Tween-80 + alcohol): 96 % of control

Cc1cccc(NC(=O)CCc2ccc(N3C(N)=NC(N)=NC3(C)C)cc2)c1
T/C (dose: 58.0 mg/kg/injection, schedule: Q01DX009 (ip), vehicle: saline with Tween-80): 111 % of control
T/C (dose: 88.0 mg/kg/injection, schedule: Q01DX009 (ip), vehicle: saline with Tween-80): 119 % of control
T/C (dose: 132.0 mg/kg/injection, schedule: Q01DX009 (ip), vehicle: saline with Tween-80): 119 % of control and 122 % of control

CCSC1(SCC)C(=O)OC2=C(CCCCC2)C1N(C)c1ccccc1 (configuration not stated)
T/C [6]: 87 % of control
T/C [7]: 96 % of control

Nc1nc(N)c2c(n1)CCC(S(=O)(=O)c1ccc3ccccc3c1)C2 (configuration not stated)
T/C [6]: 103 % of control and 114 % of control
T/C [8]: 122 % of control and 124 % of control
T/C [7]: 123 % of control

CCCCCCCCCCCC[Si](CCCCCCCCCCCC)(c1ccccc1)c1ccccc1
T/C (dose: 100.0 mg/kg/injection, schedule: Q01DX009 (ip), vehicle: other): 95 % of control
T/C [3]: 100 % of control
T/C (dose: 200.0 mg/kg/injection, schedule: Q01DX009 (ip), vehicle: other): 114 % of control
T/C [4]: 100 % of control
T/C (dose: 400.0 mg/kg/injection, schedule: Q01DX009 (ip), vehicle: other): 109 % of control
T/C [5]: 100 % of control

COC(=O)c1cc(=O)nc(NN=C2CCCCC2)s1
T/C (dose: 50.0 mg/kg/injection, schedule: Q01DX005 (ip), vehicle: saline with Tween-80): 99 % of control
T/C (dose: 100.0 mg/kg/injection, schedule: Q01DX005 (ip), vehicle: saline with Tween-80): 103 % of control

CCCCCCCC(=O)NC1CC(O[C@H]2C[C@](O)(C(=O)CO)Cc3c(O)c4c(c(O)c32)C(=O)c2c(OC)cccc2C4=O)OC(C)C1O (some centres not stated)
T/C (dose: 0.78 mg/kg/injection, schedule: Q01DX009 (ip), vehicle: water): 104 % of control
T/C (dose: 6.25 mg/kg/injection, schedule: Q01DX009 (ip), vehicle: water): 150 % of control
T/C (dose: 12.5 mg/kg/injection, schedule: Q01DX009 (ip), vehicle: water): 156 % of control
T/C (dose: 18.8 mg/kg/injection, schedule: Q04DX003 (ip), vehicle: water): 106 % of control
T/C (dose: 25.0 mg/kg/injection, schedule: Q01DX009 (ip), vehicle: water): 177 % of control
T/C (dose: 37.5 mg/kg/injection, schedule: Q04DX003 (ip), vehicle: water): 109 % of control
T/C (dose: 75.0 mg/kg/injection, schedule: Q04DX003 (ip), vehicle: water): 104 % of control and 123 % of control
T/C (dose: 150.0 mg/kg/injection, schedule: Q04DX003 (ip), vehicle: water): 119 % of control

CC(C)(C)c1ccc(OS(=O)(=O)c2ccccc2[N+](=O)[O-])cc1
T/C (dose: 100.0 mg/kg/injection, schedule: Q01DX001 (ip), vehicle: saline with Tween-80): 104 % of control
T/C (dose: 200.0 mg/kg/injection, schedule: Q01DX001 (ip), vehicle: saline with Tween-80): 100 % of control
T/C (dose: 400.0 mg/kg/injection, schedule: Q01DX001 (ip), vehicle: saline with Tween-80): 113 % of control

N#CC(C#N)=C1SCS1
T/C (dose: 3.12 mg/kg/injection, schedule: Q01DX009 (ip), vehicle: saline with Tween-80): 123 % of control
T/C (dose: 6.25 mg/kg/injection, schedule: Q01DX009 (ip), vehicle: saline with Tween-80): 123 % of control

CC(=O)n1ccc(=O)[nH]c1=O
T/C [6]: 102 % of control
T/C [8]: 110 % of control
T/C [7]: 99 % of control

CC(=O)NCCCCCC(=O)O
T/C (dose: 100.0 mg/kg/injection, schedule: Q01DX009 (ip), vehicle: Klucel (hydroxypropylcellulose) (HPC)): 90 % of control
T/C (dose: 100.0 mg/kg/injection, schedule: Q04DX003 (ip), vehicle: Klucel (hydroxypropylcellulose) (HPC)): 95 % of control
T/C (dose: 200.0 mg/kg/injection, schedule: Q01DX009 (ip), vehicle: Klucel (hydroxypropylcellulose) (HPC)): 90 % of control
T/C (dose: 200.0 mg/kg/injection, schedule: Q04DX003 (ip), vehicle: Klucel (hydroxypropylcellulose) (HPC)): 95 % of control
T/C (dose: 400.0 mg/kg/injection, schedule: Q01DX009 (ip), vehicle: Klucel (hydroxypropylcellulose) (HPC)): 109 % of control
T/C (dose: 400.0 mg/kg/injection, schedule: Q04DX003 (ip), vehicle: Klucel (hydroxypropylcellulose) (HPC)): 109 % of control

Reference: PubChem BioAssay AID328 (DTP/NCI, 2004)
